A short description of series [1]: circular dichroism. Conditions: water; pH 7.0; 20 °C; 10-50 uM. On the technique in general: Circular dichroism is widely used to follow secondary structure.
The target of series [2] is T1, HDM2 (Homo sapiens, UniProt Q00987).
T1 construct: Co-Immunoprecipitation of FITC-SAH-p53 Peptides and Endogenous HDM2; endogenous in cells; host or cells: SJSA-1 osteosarcoma cells
Nature of the series: Kd (nM). The source says:
The patent's description of the figure: FIGS. 1A-1F Synthesis, Sequence, and Biochemical Analysis of SAH-p53 Peptides. FIG. 1A Non-natural amino acids were synthesized as described and cross-linked by ruthenium-catalyzed ring-closing olefin metathesis. […] Note: UAH-p53-8 is the “unstapled” form of SAH-p53-8.

Series [3] deals with T2, HDM217-125 (Homo sapiens, UniProt Q00987).
T2 construct: plasmid encoding HDM217-125 with an N-terminal hexahistidine tag; hexahistidine tag (N, cleaved yes); thrombin cleavage site (N, cleaved yes); made in house; host or cells: Escherichia coli BL21 (DE3)
T2 sequence (Q00987 17-125 limits assumed): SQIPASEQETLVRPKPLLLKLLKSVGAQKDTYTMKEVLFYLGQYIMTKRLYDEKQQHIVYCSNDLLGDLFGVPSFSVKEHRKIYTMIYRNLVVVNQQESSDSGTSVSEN
Nature of the series: Fluorescence polarization binding assay, FITC-peptides and HDM217-125. The following applies: FITC-labeled derivatives. The protocol: FIG. 10 Fluorescence polarization binding assay of stapled peptides. Fluoresceinated peptides (5 nM) were incubated with recombinant HDM217-125 (25 pM-10 μM) at room temperature. Binding activity was measured by fluorescence polarization, and Kd values were obtained by […].
A fluorescence polarization binding assay was used to assess binding of peptides to HDM217-125. Fluoresceinated peptides (5 nM) were incubated with recombinant HDM217-125 (25 pM-10 μM) at room temperature. Binding activity was measured by fluorescence polarization, and KD values were obtained by […].
Purified HDM217-125 was prepared as follows. […]
and a thrombin cleavage site were cultured in kanamycin- and chloramphenicol-containing Luria Broth and induced with 0.1 mM isopropyl β-D-thiogalactoside (IPTG). […] Purity of the protein was assessed by SDS-PAGE, FPLC and MALDI-TOF and determined to be >90%. […]
Fluoresceinated compounds (LT=5-25 nM) were incubated with HDM217-125 in binding assay buffer (140 mM NaCl, 50 mM, Tris pH 8.0) at room temperature. Binding activity was measured by fluorescence polarization on a Perkin-Elmer LS50B luminescence spectrophotometer using a cuvette containing a stirbar or a Spectramax M5 Microplate Reader (Molecular Devices). Kd values were determined by nonlinear regression analysis of dose response curves using Prism software 4.0 Graphpad. […]
In general terms: Fluorescence polarisation rises when a labelled molecule tumbles more slowly, as on binding a larger partner.

Series [4] can be described thus: Ex vivo protease stability in serum. Type of series: in vitro ADME, mouse. As for the experimental part:
FIG. 5 To determine whether SAH-p53 peptides have increased proteolytic stability, the wild type p5314-29 peptide and SAH-p53-4 were exposed to serum ex vivo.
To assess the protease stability of the peptides, fluoresceinated peptides (2.5 μg) were incubated with fresh mouse serum (20 μL) at 37° C. for 0-24 hours. The level of intact fluoresceinated compound was determined by flash freezing the serum specimens in liquid nitrogen, lyophilization, extraction in 1:1 CH3CN:H2O containing 0.1% TFA, followed by HPLC-based quantitation using fluorescence detection at excitation/emission settings of 495/530 nm.

Series [5] relates to SJSA-1 cells.
Description: After washing with PBS, the cells were fixed in 4% paraformaldehyde, washed with PBS, and treated with DAPI-containing (nuclear counterstain) Vectashield mounting medium (Vector), coverslipped and imaged by confocal microscopy (BioRad 1024 or Nikon E800).
Series [6] relates to SJSA-1 cells. The format is cell-based. The following applies: 24 h.
Protocol: SJSA-1 osteosarcoma cells (4×10^5 cells per well) were incubated in 96-well plates and treated with p53 peptides in serum-free media for 4 hours, followed by serum replacement and additional incubation for 20 hours. Cell viability was assayed by addition of CellTiter-Glo™ bioluminescence reagent (Promega) and reading luminescence in a Spectramax M5 microplate reader (Molecular Devices). The extent of apoptosis was measured through the detection of caspase-3 activity by exposing the cells to a caspase-3-specific substrate (Oncogene). Fluorescence as a result of substrate cleavage was measured in a Spectramax M5 microplate reader (Molecular Devices).
In series [7] the test system is SJSA-1 cells. Type of series: cell-based. The following applies: 24 h. The source holds these as a separate data set.
Protocol: The cells were then exposed to a caspase-3 specific substrate (Ac-DEVD-AMC ('DEVD' disclosed as SEQ ID NO: 7)). Fluorescence as a result of cleavage was measured in a microplate reader. To determine the specificity of the activity, certain peptides were incubated alongside DEVD-CHO ('DEVD' disclosed as SEQ ID NO: 7), a substrate known to inhibit caspase-3 specifically. The effect of various peptides on caspase-3 activation was examined as follows. […] The cells were then exposed to a caspase-3 specific substrate. Fluorescence as a result of cleavage was measured in a microplate reader. To determine the specificity of the activity, certain peptides were incubated alongside DEVD-CHO ('DEVD' disclosed as SEQ ID NO: 7), a substrate known to inhibit caspase-3 specifically. […] Cell viability was assayed by addition of CellTiter-GloTM bioluminescence reagent (Promega) and reading luminescence in a Spectramax M5 microplate reader (Molecular Devices). The extent of apoptosis was measured through the detection of caspase-3 activity by exposing the cells to a caspase-3-specific substrate (Oncogene). Fluorescence as a result of substrate cleavage was measured in a Spectramax M5 microplate reader (Molecular Devices).

Where two headings read alike, the source gives them in different places. Bridge positions count the residues as written; N and C are the ends. Square brackets hold non-standard residues; d marks the D form. Peptide text beside a SMILES is read from it. R8 = C=CCCCCCC[C@@](C)(N)C(=O)O; S5 = C=CCCC[C@](C)(N)C(=O)O; βAla = NCCC(=O)O

T1 sequence (Q00987 whole entry, looked up): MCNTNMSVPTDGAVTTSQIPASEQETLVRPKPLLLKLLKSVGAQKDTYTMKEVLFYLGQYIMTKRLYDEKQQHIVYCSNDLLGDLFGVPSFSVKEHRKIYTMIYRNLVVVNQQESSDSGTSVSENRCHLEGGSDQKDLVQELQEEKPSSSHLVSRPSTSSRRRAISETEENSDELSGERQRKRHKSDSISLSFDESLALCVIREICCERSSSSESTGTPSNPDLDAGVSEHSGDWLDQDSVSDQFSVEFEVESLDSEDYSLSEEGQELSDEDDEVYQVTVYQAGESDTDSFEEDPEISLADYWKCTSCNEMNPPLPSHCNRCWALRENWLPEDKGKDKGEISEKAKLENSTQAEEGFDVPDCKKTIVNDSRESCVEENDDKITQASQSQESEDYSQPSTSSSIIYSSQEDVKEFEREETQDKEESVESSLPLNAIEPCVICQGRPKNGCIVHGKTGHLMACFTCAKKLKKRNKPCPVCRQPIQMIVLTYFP

As to `CC(=O)NCCC(=O)N[C@@H](CC(C)C)C(=O)N[C@@H](CO)C(=O)N[C@@H](CCC(N)=O)C(=O)N[C@@H](CCC(=O)O)C(=O)N[C@H](C(=O)N[C@@H](Cc1ccccc1)C(=O)N[C@@H](CO)C(=O)N[C@@H](CC(=O)O)C(=O)N[C@@H](CC(C)C)C(=O)N[C@@H](Cc1c[nH]c2ccccc12)C(=O)N[C@@H](CCCCN)C(=O)N[C@@H](CC(C)C)C(=O)N[C@@H](CC(C)C)C(=O)N1CCC[C@H]1C(=O)N[C@@H](CCC(=O)O)C(=O)N[C@@H](CC(N)=O)C(N)=O)[C@@H](C)O`, the helicity in series [1] turned out to be 11%.

`CC(=O)NCCC(=O)N[C@@H](CC(C)C)C(=O)N[C@@H](CO)C(=O)N[C@@H](CCC(N)=O)C(=O)N[C@@H](CCC(=O)O)C(=O)N[C@]1(C)CCCCCCC=CCCC[C@@](C)(C(=O)N[C@@H](CC(C)C)C(=O)N2CCC[C@H]2C(=O)N[C@@H](CCC(=O)O)C(=O)N[C@@H](CC(N)=O)C(N)=O)NC(=O)[C@H](CCCCN)NC(=O)[C@H](Cc2c[nH]c3ccccc23)NC(=O)[C@H](CC(C)C)NC(=O)[C@H](CC(=O)O)NC(=O)[C@H](CO)NC(=O)[C@H](Cc2ccccc2)NC1=O` (Ac-[βAla]LSQE[R8]FSDLWK[S5]LPEN-NH2; staple 6-13) had a helicity in series [1] of 10%.

Compound `CC(=O)NCCC(=O)N[C@@H](CC(C)C)C(=O)N[C@@H](CO)C(=O)N[C@@H](CCC(N)=O)C(=O)N[C@]1(C)CCCCCCC=CCCC[C@@](C)(C(=O)N[C@@H](CC(C)C)C(=O)N[C@@H](CC(C)C)C(=O)N2CCC[C@H]2C(=O)N[C@@H](CCC(=O)O)C(=O)N[C@@H](CC(N)=O)C(N)=O)NC(=O)[C@H](Cc2c[nH]c3ccccc23)NC(=O)[C@H](CC(C)C)NC(=O)[C@H](CC(=O)O)NC(=O)[C@H](CO)NC(=O)[C@H](Cc2ccccc2)NC(=O)[C@H]([C@@H](C)O)NC1=O` (Ac-[βAla]LSQ[R8]TFSDLW[S5]LLPEN-NH2; staple 5-12) showed a helicity in series [1] of 12%.

As usually defined, the Kd is a measure of binding affinity in units of concentration. Turning to `CC(=O)NCCC(=O)N[C@@H](CC(C)C)C(=O)N[C@@H](CO)C(=O)N[C@@H](CCC(N)=O)C(=O)N[C@@H](CCC(=O)O)C(=O)N[C@H](C(=O)N[C@@H](Cc1ccccc1)C(=O)N[C@@H](CO)C(=O)N[C@@H](CC(=O)O)C(=O)N[C@]1(C)CCCCCCC=CCCC[C@@](C)(C(N)=O)NC(=O)[C@H](CCC(=O)O)NC(=O)[C@@H]2CCCN2C(=O)[C@H](CC(C)C)NC(=O)[C@H](CC(C)C)NC(=O)[C@H](CCCCN)NC(=O)[C@H](Cc2c[nH]c3ccccc23)NC1=O)[C@@H](C)O` [SAH-p53-1] (Ac-[βAla]LSQETFSD[R8]WKLLPE[S5]-NH2; staple 10-17), the helicity in series [1] was determined as 25%. The compound further displayed a Kd in series [2] of 100 ± 8 nM.

The compound `CC(=O)NCCC(=O)N[C@@H](CC(C)C)C(=O)N[C@@H](CO)C(=O)N[C@@H](CCC(N)=O)C(=O)N[C@@H](CCC(=O)O)C(=O)N[C@H](C(=O)N[C@@H](Cc1ccccc1)C(=O)N[C@]1(C)CCCCCCC=CCCC[C@@](C)(C(=O)N[C@@H](CCC(=O)O)C(=O)N[C@@H](CC(N)=O)C(N)=O)NC(=O)[C@H](CC(C)C)NC(=O)[C@H](CC(C)C)NC(=O)[C@H](CCCCN)NC(=O)[C@H](Cc2c[nH]c3ccccc23)NC(=O)[C@H](CC(C)C)NC(=O)[C@H](CC(=O)O)NC1=O)[C@@H](C)O` [SAH-p53-4] showed a helicity in series [1] of 59%. Further, the HDM2 binding affinity result in series [3] is reported as “subnanomolar”. Moreover, the proteolytic stability entry in series [4] is “improved proteolytic stability”. In series [4] (exposed to serum ex vivo), the “serum half-life (t1/2) compared with unmodified wild type peptide” value is listed as “almost four times longer”. In series [2], this compound registered a Kd of 0.92 ± 0.11 nM.

Consider `CC(=O)NCCC(=O)N[C@@H](CC(C)C)C(=O)N[C@@H](CO)C(=O)N[C@@H](CCC(N)=O)C(=O)N[C@@H](CCC(=O)O)C(=O)N[C@H](C(=O)N[C@@H](Cc1ccccc1)C(=O)N[C@]1(C)CCCCCCC=CCCC[C@@](C)(C(=O)N[C@@H](CCC(N)=O)C(=O)N[C@@H](CC(N)=O)C(N)=O)NC(=O)[C@H](CC(C)C)NC(=O)[C@H](CC(C)C)NC(=O)[C@H](CCCCN)NC(=O)[C@H](Cc2c[nH]c3ccccc23)NC(=O)[C@H](CC(C)C)NC(=O)[C@H](CC(N)=O)NC1=O)[C@@H](C)O` [SAH-p53-5] (Ac-[βAla]LSQETF[R8]NLWKLL[S5]QN-NH2; staple 8-15), for which the helicity in series [1] stood at 20%. For the same compound, the affinity in series [2], expressed as Kd, was 0.8 ± 0.05 nM.

As for `CC(=O)NCCC(=O)N[C@@H](CCC(N)=O)C(=O)N[C@@H](CO)C(=O)N[C@@H](CCC(N)=O)C(=O)N[C@@H](CCC(N)=O)C(=O)N[C@H](C(=O)N[C@@H](Cc1ccccc1)C(=O)N[C@]1(C)CCCCCCC=CCCC[C@@](C)(C(=O)N[C@@H](CCC(N)=O)C(=O)N[C@@H](CC(N)=O)C(N)=O)NC(=O)[C@H](CC(C)C)NC(=O)[C@H](CC(C)C)NC(=O)[C@H](CCCCN)NC(=O)[C@H](Cc2c[nH]c3ccccc23)NC(=O)[C@H](CC(C)C)NC(=O)[C@H](CC(N)=O)NC1=O)[C@@H](C)O` [SAH-p53-7] (Ac-[βAla]QSQQTF[R8]NLWKLL[S5]QN-NH2; staple 8-15), in series [1], the helicity was 36%. Moreover, the dissociation constant (Kd) in series [2] came to 50 ± 10 nM.

As to `CC(=O)NCCC(=O)N[C@@H](CCC(N)=O)C(=O)N[C@@H](CO)C(=O)N[C@@H](CCC(N)=O)C(=O)N[C@@H](CCC(N)=O)C(=O)N[C@H](C(=O)N[C@@H](C)C(=O)N[C@]1(C)CCCCCCC=CCCC[C@@](C)(C(=O)N[C@@H](CCC(N)=O)C(=O)N[C@@H](CC(N)=O)C(N)=O)NC(=O)[C@H](CC(C)C)NC(=O)[C@H](CC(C)C)NC(=O)[C@H](CCCNC(=N)N)NC(=O)[C@H](Cc2c[nH]c3ccccc23)NC(=O)[C@H](CC(C)C)NC(=O)[C@H](CC(N)=O)NC1=O)[C@@H](C)O` [SAH-p53-8F19A] (Ac-[βAla]QSQQTA[R8]NLWRLL[S5]QN-NH2; staple 8-15; N-terminus and C-terminus assumed), in series [1], the helicity was 39%. In addition, the cellular fluorescence result in series [5] is recorded as “Cellular fluorescence was observed”. The compound further yielded a Kd in series [2] of over 4000 nM.

As usually defined, the EC50 is the concentration giving half of the maximal effect. A higher EC50 goes with a less potent agent. Compound `CC(=O)NCCC(=O)N[C@@H](CCC(N)=O)C(=O)N[C@@H](CO)C(=O)N[C@@H](CCC(N)=O)C(=O)N[C@@H](CCC(N)=O)C(=O)N[C@H](C(=O)N[C@@H](Cc1ccccc1)C(=O)N[C@]1(C)CCCCCCC=CCCC[C@@](C)(C(=O)N[C@@H](CCC(N)=O)C(=O)N[C@@H](CC(N)=O)C(N)=O)NC(=O)[C@H](CC(C)C)NC(=O)[C@H](CC(C)C)NC(=O)[C@H](CCCNC(=N)N)NC(=O)[C@H](Cc2c[nH]c3ccccc23)NC(=O)[C@H](CC(C)C)NC(=O)[C@H](CC(N)=O)NC1=O)[C@@H](C)O` [SAH-p53-8] registered a helicity in series [1] of 85%. The values for the EC50 in series [6] and in series [7] were 8800 nM and 5800 nM, respectively. For the same compound, the cellular fluorescence result in series [5] was “Cellular fluorescence was observed”. The compound also returned a Kd in series [2] of 55 ± 11 nM.

For the compound `C=CCCCCCC[C@@](C)(NC(=O)[C@H](Cc1ccccc1)NC(=O)[C@@H](NC(=O)[C@H](CCC(N)=O)NC(=O)[C@H](CCC(N)=O)NC(=O)[C@H](CO)NC(=O)[C@H](CCC(N)=O)NC(=O)CCNC(C)=O)[C@@H](C)O)C(=O)N[C@@H](CC(N)=O)C(=O)N[C@@H](CC(C)C)C(=O)N[C@@H](Cc1c[nH]c2ccccc12)C(=O)N[C@@H](CCCNC(=N)N)C(=O)N[C@@H](CC(C)C)C(=O)N[C@@H](CC(C)C)C(=O)N[C@@](C)(CCCC=C)C(=O)N[C@@H](CCC(N)=O)C(=O)N[C@@H](CC(N)=O)C(N)=O` [UAH-p53-8, Ac-QSQQTF*NLWRKK*QN-NH2], the helicity in series [1] came out at 36%.

The values are drawn from patent US9527896B2, “Stabilized p53 peptides and uses thereof” (DANA-FARBER CANCER INSTITUTE, INC., priority 2007, dated 2016).
